Series [1] concerns human breast MDA-MB-361 tumor cell line. The series can be described thus: In vitro cell culture growth assay (MTS), MDA-MB-361. In kind it is cell-based. Particulars: Homo sapiens, MDA-MB-361, 72 h; MTS cell growth assay, three days after drug treatment; read-out: IC50 MDA-MB-361.
The target of series [2] is Human mTOR (FLAG-TOR) (Homo sapiens, UniProt P42345). The series can be described thus: mTOR kinase assay (DELFIA format, purified enzyme). Particulars: read-out: IC50 mTOR. In kind it is biochemical.
Series [3] deals with PI3K-α (Homo sapiens, UniProt P42336). The series can be described thus: PI3K-alpha fluorescence polarization assay. Particulars: read-out: IC50 PI3Kα.
Series [4] concerns human prostate PC3-mm2 tumor cell line. The series can be described thus: In vitro cell culture growth assay (MTS), PC3-mm2. In kind it is cell-based. Conditions: Homo sapiens, PC3MM2, 72 h, MTS cell growth assay, three days after drug treatment; read-out: IC50 PC3-mm2.
In series [5] the target is PI3K-γ (Homo sapiens, UniProt P48736). The series is described as follows: PI3K-gamma fluorescence polarization assay. Particulars: read-out: IC50 PI3Kγ.
For series [6], the system named is human tumor xenograft models. Conditions: cited from earlier work.
Series [7] concerns acute lymphoblastic leukemia xenograft. Conditions: NOS/SCID xenograft mouse model of acute lymphoblastic leukemia; cited from earlier work.
Series [8] concerns the target mTOR enzymes (Homo sapiens, UniProt P42345). Conditions: read-out: mTOR enzymes IC50; cited from earlier work.

The structures appear in SMILES notation. Where two headings read alike, the source gives them in different places. Some results are limits rather than exact numbers.

Sequence of PI3K-γ (P48736 whole entry, species assumed): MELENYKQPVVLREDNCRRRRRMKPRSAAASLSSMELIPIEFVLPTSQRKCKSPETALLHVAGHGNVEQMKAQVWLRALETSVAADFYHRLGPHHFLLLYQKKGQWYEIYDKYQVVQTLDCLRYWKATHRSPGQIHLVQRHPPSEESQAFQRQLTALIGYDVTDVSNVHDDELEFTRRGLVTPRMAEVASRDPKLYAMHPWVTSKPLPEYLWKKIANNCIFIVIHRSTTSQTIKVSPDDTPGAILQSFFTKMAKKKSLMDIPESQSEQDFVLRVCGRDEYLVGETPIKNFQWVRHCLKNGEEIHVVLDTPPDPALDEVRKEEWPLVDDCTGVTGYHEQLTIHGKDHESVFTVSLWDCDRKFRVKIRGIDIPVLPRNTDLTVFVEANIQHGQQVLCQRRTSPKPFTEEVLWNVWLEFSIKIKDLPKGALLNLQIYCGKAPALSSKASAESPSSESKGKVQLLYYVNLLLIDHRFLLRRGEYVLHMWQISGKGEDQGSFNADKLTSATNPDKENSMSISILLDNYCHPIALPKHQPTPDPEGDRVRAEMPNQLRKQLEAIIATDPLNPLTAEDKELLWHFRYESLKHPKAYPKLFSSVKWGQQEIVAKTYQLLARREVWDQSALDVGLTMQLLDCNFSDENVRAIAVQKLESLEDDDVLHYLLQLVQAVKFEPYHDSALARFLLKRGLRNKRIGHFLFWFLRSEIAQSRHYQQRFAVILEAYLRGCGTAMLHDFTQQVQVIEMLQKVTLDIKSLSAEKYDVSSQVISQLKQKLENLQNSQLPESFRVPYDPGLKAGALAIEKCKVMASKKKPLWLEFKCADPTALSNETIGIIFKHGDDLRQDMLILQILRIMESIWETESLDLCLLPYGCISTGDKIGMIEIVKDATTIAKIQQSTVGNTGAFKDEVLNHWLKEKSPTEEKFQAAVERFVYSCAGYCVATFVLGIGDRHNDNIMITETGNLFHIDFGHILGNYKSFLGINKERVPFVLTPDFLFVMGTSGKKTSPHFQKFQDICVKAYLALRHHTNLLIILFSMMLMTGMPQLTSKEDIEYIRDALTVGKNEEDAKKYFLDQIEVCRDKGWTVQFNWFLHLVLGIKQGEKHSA
Sequence of PI3K-α (P42336 whole entry, species assumed): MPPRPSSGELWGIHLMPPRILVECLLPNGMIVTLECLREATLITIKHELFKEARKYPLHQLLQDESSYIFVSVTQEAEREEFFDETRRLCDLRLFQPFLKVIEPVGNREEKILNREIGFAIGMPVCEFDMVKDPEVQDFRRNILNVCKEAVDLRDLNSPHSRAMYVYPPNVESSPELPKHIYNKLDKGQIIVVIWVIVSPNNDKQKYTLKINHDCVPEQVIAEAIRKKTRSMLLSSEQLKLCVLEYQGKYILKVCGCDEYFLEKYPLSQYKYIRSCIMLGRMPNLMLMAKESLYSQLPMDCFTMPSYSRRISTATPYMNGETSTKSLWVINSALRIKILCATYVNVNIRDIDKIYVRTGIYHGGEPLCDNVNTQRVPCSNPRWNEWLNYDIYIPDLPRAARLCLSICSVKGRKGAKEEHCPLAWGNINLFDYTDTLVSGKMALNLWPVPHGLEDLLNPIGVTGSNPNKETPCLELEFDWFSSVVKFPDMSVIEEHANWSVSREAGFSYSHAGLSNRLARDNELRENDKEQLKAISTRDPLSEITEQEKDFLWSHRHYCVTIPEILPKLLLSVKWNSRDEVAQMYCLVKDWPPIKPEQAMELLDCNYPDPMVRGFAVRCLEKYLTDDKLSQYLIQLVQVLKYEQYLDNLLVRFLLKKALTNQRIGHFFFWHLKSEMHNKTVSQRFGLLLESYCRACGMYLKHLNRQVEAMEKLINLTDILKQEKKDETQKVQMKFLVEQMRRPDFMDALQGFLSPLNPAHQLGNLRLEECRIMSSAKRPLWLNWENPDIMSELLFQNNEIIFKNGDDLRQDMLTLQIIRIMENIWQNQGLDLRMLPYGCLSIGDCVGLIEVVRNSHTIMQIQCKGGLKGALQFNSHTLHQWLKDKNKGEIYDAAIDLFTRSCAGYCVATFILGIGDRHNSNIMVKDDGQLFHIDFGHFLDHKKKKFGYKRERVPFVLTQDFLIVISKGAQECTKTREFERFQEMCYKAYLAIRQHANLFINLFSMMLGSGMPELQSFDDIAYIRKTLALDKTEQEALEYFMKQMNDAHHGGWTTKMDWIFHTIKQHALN
Sequence of PI3K-α (P27986 whole entry partner, species assumed): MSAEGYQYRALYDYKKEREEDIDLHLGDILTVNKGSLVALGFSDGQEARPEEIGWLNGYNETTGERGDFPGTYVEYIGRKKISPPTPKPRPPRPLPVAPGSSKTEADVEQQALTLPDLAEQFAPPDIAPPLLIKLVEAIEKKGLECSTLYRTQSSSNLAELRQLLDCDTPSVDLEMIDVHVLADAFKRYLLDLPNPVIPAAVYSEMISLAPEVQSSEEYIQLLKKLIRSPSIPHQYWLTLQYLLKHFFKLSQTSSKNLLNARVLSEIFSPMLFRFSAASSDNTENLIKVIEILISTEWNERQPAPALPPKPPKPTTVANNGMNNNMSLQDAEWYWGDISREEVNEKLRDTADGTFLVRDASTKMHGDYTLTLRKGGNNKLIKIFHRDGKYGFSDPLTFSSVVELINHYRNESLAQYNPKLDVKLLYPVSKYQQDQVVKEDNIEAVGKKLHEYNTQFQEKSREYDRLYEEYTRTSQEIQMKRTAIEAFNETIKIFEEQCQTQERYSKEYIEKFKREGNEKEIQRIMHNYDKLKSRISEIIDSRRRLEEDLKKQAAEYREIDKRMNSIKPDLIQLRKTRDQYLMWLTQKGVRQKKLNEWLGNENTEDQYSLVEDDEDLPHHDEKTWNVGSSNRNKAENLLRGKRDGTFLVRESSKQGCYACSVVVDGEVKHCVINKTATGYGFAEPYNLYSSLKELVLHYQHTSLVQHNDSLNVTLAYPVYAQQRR

`CN1CCN(C(=O)c2ccc(NC(=O)Nc3ccc(-c4nc(N5CCC5)nc(N5CCOCC5)n4)cc3)cc2)CC1` [Example 196, 1-[4-(4-azetidin-1-yl-6-morpholin-4-yl-1,3,5-triazin-2-yl)phenyl]-3-{4-[(4-methylpiperazin-1-yl)carbonyl]phenyl}urea] gave a melting point of 170 °C. For the same compound, in series [1], the IC50 stood at 50 nM. In series [2], the 50% inhibitory concentration (IC50) worked out at 13 nM. For the same compound, in series [3], the half-maximal inhibitory concentration (IC50) worked out at 6 nM. The IC50 in series [4] amounted to 82 nM. For the same compound, in [5], the IC50 was determined as 55 nM.
Take `O=C(Nc1ccc(C(=O)NCc2ccccn2)cc1)Nc1ccc(-c2nc(N3CCOCC3)nc(N3CCOCC3)n2)cc1` [Example 263, 4-({[4-(4,6-dimorpholin-4-yl-1,3,5-triazin-2-yl)phenyl]carbamoyl}amino)-N-(pyridin-2-ylmethyl)benzamide]: the melting point lay in the range of 296 to 298 °C. Also, in series [1], the IC50 was 68 nM. In addition, the half-inhibitory concentration (IC50) in [2] was 1 nM. The IC50 in [3] turned out to be 3 nM. The half-inhibitory concentration (IC50) in series [4] turned out to be 31 nM. In addition, the IC50 in series [5] was found to be 20 nM.
`COC(=O)c1ccc(NC(=O)Nc2ccc(-c3nc(C(C)C)nc(N4CCOCC4)n3)cc2)cc1` [Example 300, methyl 4-[({4-[4-(1-methylethyl)-6-morpholin-4-yl-1,3,5-triazin-2-yl]phenyl}carbamoyl)amino]benzoate] returned a melting point of 218 °C. In addition, the concentration for half-maximal inhibition (IC50) in [1] came to 297 nM. Moreover, the half-inhibitory concentration (IC50) in series [2] came to 5.3 nM. Besides, in [3], the IC50 came to 39 nM. Further, in [4], the half-inhibitory concentration (IC50) came to 340 nM. Besides, in series [5], the 50% inhibitory concentration (IC50) turned out to be 106 nM.
Take `Cn1c(=O)n(-c2ccc(C(C)(C)C#N)cc2)c2c3cc(-c4cnc5ccccc5c4)ccc3ncc21` [NVP-BEZ-235, 2-methyl-2-(4-(3-methyl-2-oxo-8-(quinolin-3-yl)-2,3-dihydro-1H-imidazo[4,5-c]quinolin-1-yl)phenyl)propanenitrile]: the “activity against human tumor models” value in series [6] (prostrate (PC-3) and glioblastoma (U-87) xenografts) is on record as “demonstrated activity”.
`Oc1cccc(-c2nc(N3CCOCC3)c3oc4ncccc4c3n2)c1` [PI103, 3-(4-(4-morpholinyl)pyrido[3′,2′:4,5]furo[3,2-d]pyrimidin-2-yl)phenol]: in series [6] (I.P. dosing in mice, U87MG, PC3, MDA-MB-468, MDA-MB-435, HCT 116, SKOV3, IGROV-1 xenografts), the “activity against human tumor models” value is listed as “demonstrated activity”.
As for `CO[C@H]1C[C@@H]2CC[C@@H](C)[C@@](O)(O2)C(=O)C(=O)N2CCCC[C@H]2C(=O)O[C@H]([C@H](C)C[C@@H]2CC[C@@H](OC(=O)C(C)(CO)CO)[C@H](OC)C2)CC(=O)[C@H](C)/C=C(\C)[C@@H](O)[C@@H](OC)C(=O)[C@H](C)C[C@H](C)/C=C/C=C/C=C/1C` [Torisel], the “activity in xenograft mouse model” value in [7] is on record as “active”.
As to `FC(F)c1nc2ccccc2n1-c1nc(N2CCOCC2)nc(N2CCOCC2)n1` [ZSTK474, 2-(2-difluoromethylbenzoimidazol-1-yl)-4,6-dimorpholino-1,3,5-triazine], in series [6] (chronic oral administration, 400 mg/kg, mouse, A549, PC-3, WiDr), the “growth of human xenograft tumors” value is listed as “completely inhibited growth”. For the same compound, the IC50 in series [8] was greater than 10000 nM.

The values above are taken from US20090304692A1, “TRIAZINE COMPOUNDS AS PI3 KINASE AND MTOR INHIBITORS” (Wyeth, priority 2008, published 2009).
